Test results reported in PMC7522027 (Disease Models & Mechanisms, 2020).
Several values for one entry are separate records, joined by “and”; a condition that tells them apart may be missing. Equal entries are not always repeated. Entries after “also recorded” stand apart in the source; their conditions may differ.

How the values were obtained:
[1] = target: T1, ACV-R1 (ALK2) (Homo sapiens, UniProt Q04771); experiment: radiometric protein kinase assay, ALK2; format: biochemical; details: [ATP] = 3 μM; Fig. 7B
T1 construct: purchased ProQinase GmbH (Freiburg, Germany); host or cells: bacteria (so in the source)
T1 sequence (Q04771 21-509): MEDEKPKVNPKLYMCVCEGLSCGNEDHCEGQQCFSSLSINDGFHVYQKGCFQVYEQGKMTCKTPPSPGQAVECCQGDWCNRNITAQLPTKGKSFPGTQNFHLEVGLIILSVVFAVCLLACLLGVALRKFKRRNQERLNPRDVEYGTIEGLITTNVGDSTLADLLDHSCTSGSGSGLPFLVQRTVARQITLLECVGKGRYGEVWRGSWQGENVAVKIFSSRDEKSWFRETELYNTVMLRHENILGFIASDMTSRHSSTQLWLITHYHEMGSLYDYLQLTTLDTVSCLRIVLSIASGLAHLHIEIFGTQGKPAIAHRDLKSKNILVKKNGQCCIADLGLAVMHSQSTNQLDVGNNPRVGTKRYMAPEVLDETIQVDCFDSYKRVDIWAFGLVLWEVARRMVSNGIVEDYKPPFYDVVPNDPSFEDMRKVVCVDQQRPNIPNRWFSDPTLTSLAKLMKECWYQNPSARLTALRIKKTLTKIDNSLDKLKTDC
Protocol: (§3) IC50 values were calculated using Prism 5.04 for Windows (GraphPad, San Diego, CA, USA; www.graphpad.com). The mathematical model used was ‘Sigmoidal response (variable slope)’ with parameters ‘top’ fixed at 100% and ‘bottom’ at 0%. The fitting method used was a least-squares fit.

[2] = system: zebrafish embryos; experiment: in situ hybridization with krox20/myod probes in treated zebrafish embryos; format: in vivo, zebrafish (Danio rerio); details: 750 nM from 6 hpf, fixed at 12 hpf
Protocol: Embryos were treated from approximately 6 hpf until 12 hpf when they were fixed in 4% paraformaldehyde overnight. In situ hybridization was performed using krox20 and myod anti-sense RNA probes as described elsewhere ([Thisse and Thisse, 2008]).

[3] = target: T2, caALK3 (Homo sapiens, UniProt P36894, Q233D); experiment: caALK3-induced SMAD1/5 phosphorylation in HEK 293T cells; format: cell-based; details: cercosporamide 1-10 µM, LDN193189 200 nM
T2 construct: expressed in transfected cells; host or cells: HEK 293T
T2 sequence (P36894 24-532 Q233D): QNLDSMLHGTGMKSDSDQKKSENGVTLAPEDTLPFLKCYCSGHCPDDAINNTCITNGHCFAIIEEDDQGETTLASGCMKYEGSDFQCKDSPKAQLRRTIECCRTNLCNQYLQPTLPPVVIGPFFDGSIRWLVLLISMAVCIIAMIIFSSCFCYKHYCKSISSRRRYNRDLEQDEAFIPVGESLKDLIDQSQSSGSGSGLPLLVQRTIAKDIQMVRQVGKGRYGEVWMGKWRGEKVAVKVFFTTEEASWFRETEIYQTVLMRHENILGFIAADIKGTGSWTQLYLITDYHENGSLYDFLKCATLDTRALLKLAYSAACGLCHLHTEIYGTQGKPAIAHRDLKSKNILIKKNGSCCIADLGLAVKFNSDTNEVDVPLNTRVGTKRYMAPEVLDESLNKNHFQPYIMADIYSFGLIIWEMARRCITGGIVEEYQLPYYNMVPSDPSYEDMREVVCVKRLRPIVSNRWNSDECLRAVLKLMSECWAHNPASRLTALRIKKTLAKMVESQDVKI
Description: (§1) HepG2 or HEK 293T cells were lysed in Laemmli sample buffer. Proteins were separated by sodium dodecyl sulfate polyacrylamide gel electrophoresis (SDS-PAGE) and transferred onto […] polyvinylidene difluoride (PVDF) membrane (IPVH00010, Merck Millipore). Membranes were blocked using 5% non-fat dry milk in Tris-buffered saline with 0.1% Tween 20 (655204, Merck Millipore) and probed with the respective primary and secondary antibodies. The signal was detected using Clarity™ Western ECL Substrate (1705060, Bio-Rad) and ChemiDoc Imaging System (17001402, Bio-Rad). The antibodies used for immunoblotting were raised against the following proteins: phospho-SMAD1/5/8 ([Persson et al., 1998]; 1:1000), SMAD1 (Cell Signaling Technology, #6944; 1:1000), GAPDH (Merck Millipore, #G8795; 1:5000) and hemagglutinin (HA; Roche, #12CA5; 1:1000).
(§2) For experiments with the caALK type I receptor constructs, HEK 293T cells were seeded in 24-well plates at ∼90% confluency and transfected with the DNA expression constructs in the presence of PEI. Thirty hours after transfection, the cells were added to serum-starved medium and treated with compounds for 16 h (overnight). Subsequently, the cells were washed with PBS and lysed in Laemmli sample buffer. […]

[4] = target: T3, ACV-RL1 (ALK1) (Homo sapiens, UniProt P37023); experiment: radiometric protein kinase assay, ALK1; format: biochemical; details: [ATP] = 1 μM; Fig. 7D
T3 construct: purchased ProQinase GmbH (Freiburg, Germany); host or cells: bacteria (so in the source)
T3 sequence (P37023 22-503): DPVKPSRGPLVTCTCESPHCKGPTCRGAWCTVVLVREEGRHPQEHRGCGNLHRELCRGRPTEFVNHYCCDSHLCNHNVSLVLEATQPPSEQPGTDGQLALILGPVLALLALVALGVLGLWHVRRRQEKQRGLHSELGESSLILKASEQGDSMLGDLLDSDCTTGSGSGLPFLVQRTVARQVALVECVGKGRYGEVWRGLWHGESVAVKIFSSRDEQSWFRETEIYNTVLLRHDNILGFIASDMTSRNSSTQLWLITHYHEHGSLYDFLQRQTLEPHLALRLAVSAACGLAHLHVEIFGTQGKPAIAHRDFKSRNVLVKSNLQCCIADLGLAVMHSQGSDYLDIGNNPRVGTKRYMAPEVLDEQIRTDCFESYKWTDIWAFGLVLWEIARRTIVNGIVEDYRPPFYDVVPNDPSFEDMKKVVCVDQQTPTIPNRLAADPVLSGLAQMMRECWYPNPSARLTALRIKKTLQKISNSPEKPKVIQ
Protocol: as §3

[5] = target: T4, caALK5 (Homo sapiens, UniProt P36897, T204D); experiment: caALK5-induced SMAD phosphorylation in HEK 293T cells; format: cell-based; details: 1, 5, 10 µM
T4 construct: expressed in transfected cells; host or cells: HEK 293T
T4 sequence (P36897 34-503 T204D): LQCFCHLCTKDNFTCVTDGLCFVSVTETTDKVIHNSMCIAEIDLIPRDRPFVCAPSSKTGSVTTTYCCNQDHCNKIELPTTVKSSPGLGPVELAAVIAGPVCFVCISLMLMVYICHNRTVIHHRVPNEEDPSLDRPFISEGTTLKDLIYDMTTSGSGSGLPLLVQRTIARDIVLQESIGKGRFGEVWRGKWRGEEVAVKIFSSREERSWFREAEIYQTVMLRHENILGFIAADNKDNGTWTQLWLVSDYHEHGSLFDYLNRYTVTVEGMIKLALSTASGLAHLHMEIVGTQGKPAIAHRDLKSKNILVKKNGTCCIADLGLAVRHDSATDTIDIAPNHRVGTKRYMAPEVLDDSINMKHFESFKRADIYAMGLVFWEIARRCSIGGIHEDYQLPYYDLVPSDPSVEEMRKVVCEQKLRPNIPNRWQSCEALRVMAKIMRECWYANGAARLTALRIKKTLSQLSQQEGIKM
Description: as §1, §2

[6] = target: T5, caALK1 (Homo sapiens, UniProt P37023, Q201D); experiment: caALK1-induced SMAD1/5 phosphorylation in HEK 293T cells; format: cell-based; details: cercosporamide 1-10 µM, LDN193189 200 nM
T5 construct: expressed in transfected cells; host or cells: HEK 293T
T5 sequence (P37023 22-503 Q201D): as the sequence (P37023 22-503) above, with Q180D counted along it
Description: as §1, §2

[7] = system: BMP2-induced SMAD1/5 phosphorylation; experiment: BMP2-induced SMAD1/5 phosphorylation in HepG2 cells (immunoblot); format: cell-based, human; details: HepG2, BMP2 50 ng/ml; high concentrations (range 100 nM to 10 µM)
Protocol: For BMP stimulation, the HepG2 cells (∼50% confluency) were starved on serum-free medium for 6 h. Subsequently, prior to the addition of BMP ligands, the cells were treated with compound for 30 min. Next, the cells were stimulated with BMP2 (50 ng/ml) or BMP6 (50 ng/ml) for 45 min. The cells were then washed with PBS and lysed in Laemmli sample buffer for western blot analysis.
as §1

[8] = target: T6, BMPR1B (ALK6) (Homo sapiens, UniProt O00238); experiment: radiometric protein kinase assay, ALK6; format: biochemical; details: [ATP] = 3 μM; Fig. 7G
T6 construct: purchased ProQinase GmbH (Freiburg, Germany); host or cells: bacteria (so in the source)
T6 sequence (O00238 14-502): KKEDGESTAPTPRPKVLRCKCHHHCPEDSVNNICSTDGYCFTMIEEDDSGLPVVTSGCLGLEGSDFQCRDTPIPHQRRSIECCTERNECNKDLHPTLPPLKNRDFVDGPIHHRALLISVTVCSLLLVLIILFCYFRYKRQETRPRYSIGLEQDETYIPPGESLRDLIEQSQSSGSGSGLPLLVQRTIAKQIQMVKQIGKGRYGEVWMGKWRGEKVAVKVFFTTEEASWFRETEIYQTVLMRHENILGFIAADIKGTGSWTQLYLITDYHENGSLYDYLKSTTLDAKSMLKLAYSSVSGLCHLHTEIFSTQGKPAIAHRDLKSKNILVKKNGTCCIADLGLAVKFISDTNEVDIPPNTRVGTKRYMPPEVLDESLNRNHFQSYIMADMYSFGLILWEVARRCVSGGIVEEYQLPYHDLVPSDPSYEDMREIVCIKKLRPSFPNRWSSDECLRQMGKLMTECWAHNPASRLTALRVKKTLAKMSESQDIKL
Protocol: as §3

[9] = target: T7, ACV-R1B (ALK4) (Homo sapiens, UniProt P36896); experiment: radiometric protein kinase assay, ALK4; format: biochemical; details: [ATP] = 1 μM; Fig. 7C
T7 construct: purchased ProQinase GmbH (Freiburg, Germany); host or cells: bacteria (so in the source)
T7 sequence (P36896 24-505): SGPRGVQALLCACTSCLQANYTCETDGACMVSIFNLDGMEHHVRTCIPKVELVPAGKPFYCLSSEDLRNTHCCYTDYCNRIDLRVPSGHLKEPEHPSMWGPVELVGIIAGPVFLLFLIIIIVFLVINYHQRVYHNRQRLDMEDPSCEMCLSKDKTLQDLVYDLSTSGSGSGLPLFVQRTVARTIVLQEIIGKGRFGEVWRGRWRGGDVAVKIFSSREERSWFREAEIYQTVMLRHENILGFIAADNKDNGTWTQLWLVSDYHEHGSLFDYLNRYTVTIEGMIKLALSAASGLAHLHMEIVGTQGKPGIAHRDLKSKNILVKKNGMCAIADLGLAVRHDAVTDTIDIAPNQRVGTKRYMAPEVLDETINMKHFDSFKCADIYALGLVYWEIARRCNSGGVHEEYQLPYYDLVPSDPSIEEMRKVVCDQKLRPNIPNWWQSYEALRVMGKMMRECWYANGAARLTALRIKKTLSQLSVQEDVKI
Protocol: as §3

**Q.** What does the source list for `CC(=O)C1=C(O)C=C2Oc3c(C(N)=O)c(O)cc(O)c3[C@]2(C)C1=O` [cercosporamide, Cercosporamide]?
**A.** IC50 [1]: 600 nM; krox20 expression pattern [2]: induced lateral expression of krox20; fraction of embryos showing the pattern ([2]; one fraction per depicted pattern): 7/15 and 6/15 and 2/15; effect on caALK3-induced SMAD1/5 phosphorylation [3]: inhibited SMAD1/5 phosphorylation; IC50 [4]: 3300 nM; effect on caALK5-induced SMAD1/5 phosphorylation [5]: not inhibited; also recorded: only weakly inhibited; effect on caALK1-induced SMAD1/5 phosphorylation [6]: inhibited SMAD1/5 phosphorylation; effect on BMP2-induced SMAD1/5 phosphorylation [7]: capable of blocking SMAD1/5 phosphorylation; IC50 [8]: 390 nM; IC50 [9]: 150 nM
